Assay results reported in patent US7485640B2, “Imidazopyrazinones as GABA-A receptor anxiolytics” (Merck Sharp & Dohme Limited, priority 2002, dated 2009).

melting point: 224 °C
SMILES: CN1CCn2c(-c3ccc(F)c(-c4ccc(F)cc4C#N)c3)cnc2C1=O [Example 22, 4,2′-Difluoro-5′-(7-methyl-8-oxo-5,6,7,8-tetrahydroimidazo[1,2-a]pyrazin-3-yl)biphenyl-2-carbonitrile]
